Laboratory results as given in US4497809A, “Cephalosporin derivatives” (Takeda Chemical Industries, Ltd., priority 1982, dated 1985).

Tests used:
in vivo = test: in vivo; design: species or system mouse (male SLC-ICR mice); conditions: mouse; for Bioavailability / AUC (area under plasma-concentration curve of non-ester form, 0 to 2 hr): 100 mg/kg; for AUC (area under plasma-concentration curve of non-ester form, 0 to 2 hr): po
Procedure: Test compounds: compounds obtained in examples 6, 8, 10, 13, 14, 16, 21, 23 and compound for control: pivaloyloxymethyl 7β-[2-(2-aminothiazol-4-yl)acetamido]-3-[[[1-(2-dimethylaminoethyl)-1H-tetrazol-5-yl]thio]methyl]-ceph-3-em-4-carboxylate (This will be referred to simply "compound A" hereinafter).
Male SLC-ICR mice (4 weeks old) were starved but under free access to drinking water for 16-18 hr. period to the experiments. The test compound was administered orally by intubation as an aqueous solution with 2.5 equimolar of tartaric acid at a dose of 100 mg/kg as non-ester form of the Compound I, to a group of four mice. […] The concentration of the non-ester form of the Compound I in the plasma was measured by the cylinder-plate method using Proteus mirabilis ATCC 21100 as an assay organism.
Control test: an aqueous solution of non-ester form of the Compound I in an amount of 10 ml water/Kg mouse body weight, was subcutaneously applied and AUC was calculated in the same manner as above.
Area under plasma-concentration curve (AUC) for 0 to 2 hr. after
administration was calculated by the trapezoidal rule.

[1] = system: gram-positive bacteria (e.g., Staphylococcus aureus); test: Antibacterial activity against gram-positive bacteria; assay type: cell-based; conditions: in words
[2] = system: gram-negative bacteria (e.g., Escherichia coli, Klebsiella pneumonia, Proteus vulgaris, Proteus mirabilis, Proteus morganii); test: Antibacterial activity against gram-negative bacteria; assay type: cell-based; conditions: in words

SMILES | Bioavailability (in vivo; 120 min) [%] | AUC (area under plasma-concentration curve of non-ester form, 0 to 2 hr) (in vivo; 120 min) [µg·h/mL] | AUC at 2 h (in vivo; sc) [ng·h/mL] | Bioavailability, control (in vivo; sc, 120 min) [%] | antibacterial activity against gram-positive bacteria [1] | antibacterial activity against gram-negative bacteria [2]
CCCCCC(=O)OC(CC)OC(=O)C1=C(CSc2nnnn2CCN(C)C)CS[C@@H]2[C@H](NC(=O)Cc3csc(N)n3)C(=O)N12 (stereo partly drawn) [Example 16, 1-(n-hexanoyloxy)propyl 7β-[2-(2-aminothiazol-4-yl)acetamido]-3-[[[1-(2-dimethylaminoethyl)-1H-tetrazol-5-yl]thio]methyl]ceph-3-em-4-carboxylate] | 65.0 | 25.2 | – | – | – | –
CCCC(CCC)C(=O)OC(C)OC(=O)C1=C(CSc2nnnn2CCN(C)C)CS[C@@H]2[C@H](NC(=O)Cc3csc(N)n3)C(=O)N12 (stereo partly drawn) [Example 14, 1-(2-n-propylpentanoyloxy)ethyl 7β-[2-(2-aminothiazol-4-yl)acetamido]-3-[[[1-(2-dimethylaminoethyl)-1H-tetrazol-5-yl)thio]methyl]ceph-3-em-4-carboxylate] | 66.0 | 25.6 | – | – | – | –
CN(C)CCn1nnnc1SCC1=C(C(=O)O)N2C(=O)[C@@H](NC(=O)Cc3csc(N)n3)[C@H]2SC1 [non-ester form of Compound I, 7β-[2-(2-aminothiazol-4-yl)acetamido]-3-[[[1-(2-dimethylaminoethyl)-1H-tetrazol-5-yl]thio]methyl]ceph-3-em-4-carboxylic acid, reference compound] | – | – | 38800 | 100 | excellent antibacterial activity | excellent antibacterial activity
CCCCCCCC(=O)OC(C)OC(=O)C1=C(CSc2nnnn2CCN(C)C)CS[C@@H]2[C@H](NC(=O)Cc3csc(N)n3)C(=O)N12 (stereo partly drawn) [Example 13, 1-(n-octanoyloxy)ethyl 7β-[2-(2-aminothiazol-4-yl)acetamido]-3-[[[1-(2-dimethylaminoethyl)-1H-tetrazol-5-yl]thio]methyl]ceph-3-em-4-carboxylate] | 60.6 | 23.5 | – | – | – | –
CN(C)CCn1nnnc1SCC1=C(C(=O)OCOC(=O)C(C)(C)C)N2C(=O)[C@@H](NC(=O)Cc3csc(N)n3)[C@H]2SC1 [Compound A, pivaloyloxymethyl 7β-[2-(2-aminothiazol-4-yl)acetamido]-3-[[[1-(2-dimethylaminoethyl)-1H-tetrazol-5-yl]thio]methyl]-ceph-3-em-4-carboxylate, reference compound] | 41.8 | – | – | – | – | –

Further lines, with some results ahead:

Bioavailability (in vivo; 120 min) [%] | AUC (area under plasma-concentration curve of non-ester form, 0 to 2 hr) (in vivo; 120 min) [µg·h/mL] | AUC at 2 h (in vivo; sc) [ng·h/mL] | Bioavailability, control (in vivo; sc, 120 min) [%] | SMILES | antibacterial activity against gram-positive bacteria [1] | antibacterial activity against gram-negative bacteria [2]
93.2 | 36.2 | – | – | CCC(C)CC(=O)OC(C)OC(=O)C1=C(CSc2nnnn2CCN(C)C)CS[C@@H]2[C@H](NC(=O)Cc3csc(N)n3)C(=O)N12 (stereo partly drawn) [Example 10, 1-(3-methylpentanoyloxy)ethyl 7β-[2-(2-aminothiazol-4-yl)acetamido]-3-[[[1-(2-dimethylaminoethyl)-1H-tetrazol-5-yl]-thio]methyl]ceph-3-em-4-carboxylate] | – | –
78.2 | 30.3 | – | – | CCC(CC)CC(=O)OC(C)OC(=O)C1=C(CSc2nnnn2CCN(C)C)CS[C@@H]2[C@H](NC(=O)Cc3csc(N)n3)C(=O)N12 (stereo partly drawn) [Example 23, 1-(3-ethylpentanoyloxy)ethyl 7β-[2-(2-aminothiazol-4-yl)acetamido]-3-[[[1-(2-dimethylaminoethyl)-1H-tetrazol-5-yl]thio]methyl]ceph-3-em-4-carboxylate] | – | –
67.5 | 26.2 | – | – | CCCCCC(=O)OC(C)OC(=O)C1=C(CSc2nnnn2CCN(C)C)CS[C@@H]2[C@H](NC(=O)Cc3csc(N)n3)C(=O)N12 (stereo partly drawn) [Example 6, 1-(n-hexanoyloxy)ethyl 7β-[2-(2-aminoethiazol-4-yl)acetamido]-3-[[[1-(2-dimethylaminoethyl)-1H-tetrazol-5-yl]thio]methyl]ceph-3-em-4-carboxylate] | – | –
52.8 | 20.5 | – | – | CC(C)CCC(=O)OC(C)OC(=O)C1=C(CSc2nnnn2CCN(C)C)CS[C@@H]2[C@H](NC(=O)Cc3csc(N)n3)C(=O)N12 (stereo partly drawn) [Example 8, 1-(4-methylpentanoyloxy)ethyl 7β-[2-(2-aminothiazol-4-yl)acetamido]-3-[[[1-(2-dimethylaminoethyl)-1H-tetrazol-5-yl]thio]methyl]ceph-3-em-4-carboxylate] | – | –
100.0 | 38.8 | – | – | CCC(CC)C(=O)OC(C)OC(=O)C1=C(CSc2nnnn2CCN(C)C)CS[C@@H]2[C@H](NC(=O)Cc3csc(N)n3)C(=O)N12 (stereo partly drawn) [Example 21, 1-(2-ethylbutyryloxy)ethyl 7β-[2-(2-aminothiazol-4-yl)acetamido]-3-[[[1-(2-dimethylaminoethyl)-1H-tetrazol-5-yl]thio]methyl]ceph-3-em-4-carboxylate] | – | –
